Measured values taken from PubChem BioAssay AID1963850 (Molecular Pharmacology Branch, DTP, NCI, 2024).

System: 192522-019-R-J2-PDC complex tumor spheroid viability
Test: Anticancer human tumor 192522-019-R-J2-PDC patient-derived colon adenocarcinoma cell line growth inhibition [POLQ]
Settings: for IC50: curve of first compound; for viability, T/C: stronger effect = lower value
How it was run: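 PDC + HUVEC + MSC complex spheroids; POLQ inhibitors ± partner drugs; top conc. at/near clinical Cmax, else 10 microM (SN-38 1 microM), half-log dilutions; 37 degrees C, 5% CO2.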

[1] = second compound 0.0316 µM, first compound 0.0316 µM
[2] = second compound 0.0316 µM, first compound 0.1 µM
[3] = second compound 0.0316 µM, first compound 0.316 µM
[4] = second compound 0.0316 µM, first compound 1 µM
[5] = second compound 0.0316 µM, first compound 3.16 µM
[6] = second compound 0.0316 µM, first compound 10 µM
[7] = second compound 0.1 µM, first compound 0.0316 µM
[8] = second compound 0.1 µM, first compound 0.1 µM
[9] = second compound 0.1 µM, first compound 0.316 µM
[10] = second compound 0.1 µM, first compound 1 µM
[11] = second compound 0.1 µM, first compound 3.16 µM
[12] = second compound 0.1 µM, first compound 10 µM
[13] = second compound 0.316 µM, first compound 0.0316 µM
[14] = second compound 0.316 µM, first compound 0.1 µM
[15] = second compound 0.316 µM, first compound 0.316 µM
[16] = second compound 0.316 µM, first compound 1 µM
[17] = second compound 0.316 µM, first compound 3.16 µM
[18] = second compound 0.316 µM, first compound 10 µM
[19] = second compound 1 µM, first compound 0.0316 µM
[20] = second compound 1 µM, first compound 0.1 µM
[21] = second compound 1 µM, first compound 0.316 µM
[22] = second compound 1 µM, first compound 1 µM
[23] = second compound 1 µM, first compound 3.16 µM
[24] = second compound 1 µM, first compound 10 µM
[25] = second compound 3.16 µM, first compound 0.0316 µM
[26] = second compound 3.16 µM, first compound 0.1 µM
[27] = second compound 3.16 µM, first compound 0.316 µM
[28] = second compound 3.16 µM, first compound 1 µM
[29] = second compound 3.16 µM, first compound 3.16 µM
[30] = second compound 3.16 µM, first compound 10 µM
[31] = second compound 10 µM, first compound 0.0316 µM
[32] = second compound 10 µM, first compound 0.1 µM
[33] = second compound 10 µM, first compound 0.316 µM
[34] = second compound 10 µM, first compound 1 µM
[35] = second compound 10 µM, first compound 3.16 µM
[36] = second compound 10 µM, first compound 10 µM
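Further: spheroids exposed to drugs for seven days before reading.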
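Wherever viability, T/C is given: 100% = DMSO vehicle control viability in luminescence.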

`CC(C)n1c(=O)n(C)c2cnc3cc(F)c(-c4ccc(OCCCN5CCCCC5)nc4)cc3c21` + COC1C(OC(N)=O)C(O)C(Oc2ccc3c(O)c(NC(=O)c4ccc(O)c(CC=C(C)C)c4)c(=O)oc3c2C)OC1(C)C was tested, and the IC50 (second compound 0.0316 µM) was > 10 µM, the IC50 (second compound 0.1 µM) was > 10 µM and the IC50 (second compound 0.316 µM) was > 10 µM. The IC50 (second compound 1 µM) was > 10 µM, the IC50 (second compound 3.16 µM) was > 10 µM and the IC50 (second compound 10 µM) was > 10 µM. The viability, T/C [1] was 107%, the viability, T/C [2] was 93.2% and the viability, T/C [3] was 115%. It also gave a viability, T/C [4] of 112%, a viability, T/C [5] of 112% and a viability, T/C [6] of 93.9%. For the same compound, the viability, T/C [7] was 97.5%, the viability, T/C [8] was 100% and the viability, T/C [9] was 108%. For the same compound, the viability, T/C [10] was 108%, the viability, T/C [11] was 104% and the viability, T/C [12] was 95.2%. The viability, T/C [13] was 97.8%, the viability, T/C [14] was 95.5% and the viability, T/C [15] was 117%. It also gave a viability, T/C [16] of 115%, a viability, T/C [17] of 120% and a viability, T/C [18] of 106%. The viability, T/C [19] was 96.8%, the viability, T/C [20] was 102% and the viability, T/C [21] was 104%. The viability, T/C [22] was 110%, the viability, T/C [23] was 94.9% and the viability, T/C [24] was 104%. It also gave a viability, T/C [25] of 98.1%, a viability, T/C [26] of 107% and a viability, T/C [27] of 114%. It also gave a viability, T/C [28] of 108%, a viability, T/C [29] of 122% and a viability, T/C [30] of 102%. For the same compound, the viability, T/C [31] was 118%, the viability, T/C [32] was 112% and the viability, T/C [33] was 114%. The viability, T/C [34] was 120%, the viability, T/C [35] was 110% and the viability, T/C [36] was 107%.
Work on `CC1COCCN1c1cc(-c2ccnn2C)c2ccnc(-c3ccn[nH]3)c2n1` (stereo unspecified) + COC1C(OC(N)=O)C(O)C(Oc2ccc3c(O)c(NC(=O)c4ccc(O)c(CC=C(C)C)c4)c(=O)oc3c2C)OC1(C)C yielded an IC50 (second compound 0.0316 µM) of 0.248 µM, an IC50 (second compound 0.1 µM) of 0.304 µM and an IC50 (second compound 0.316 µM) of 0.385 µM. It also gave an IC50 (second compound 1 µM) of 0.304 µM, an IC50 (second compound 3.16 µM) of 0.304 µM and an IC50 (second compound 10 µM) of 0.294 µM. The viability, T/C [1] was 92.7%, the viability, T/C [2] was 70.6% and the viability, T/C [3] was 45.5%. It also gave a viability, T/C [4] of 34.8%, a viability, T/C [5] of 38.4% and a viability, T/C [6] of 45%. The viability, T/C [7] was 103%, the viability, T/C [8] was 80.9% and the viability, T/C [9] was 50.3%. It also gave a viability, T/C [10] of 35.9%, a viability, T/C [11] of 36.9% and a viability, T/C [12] of 45.9%. The viability, T/C [13] was 93.4%, the viability, T/C [14] was 84.1% and the viability, T/C [15] was 52.8%. It also gave a viability, T/C [16] of 35.4%, a viability, T/C [17] of 39.1% and a viability, T/C [18] of 47.6%. For the same compound, the viability, T/C [19] was 101%, the viability, T/C [20] was 87.6% and the viability, T/C [21] was 49.5%. The viability, T/C [22] was 33.8%, the viability, T/C [23] was 33.6% and the viability, T/C [24] was 47.2%. For the same compound, the viability, T/C [25] was 98.6%, the viability, T/C [26] was 86.1% and the viability, T/C [27] was 49.5%. The viability, T/C [28] was 34.6%, the viability, T/C [29] was 43.1% and the viability, T/C [30] was 48.3%. The viability, T/C [31] was 103%, the viability, T/C [32] was 77.6% and the viability, T/C [33] was 50.2%. It also gave a viability, T/C [34] of 32.3%, a viability, T/C [35] of 44.9% and a viability, T/C [36] of 46.8%.
`CC1COCCN1c1cc(C2(S(C)(=N)=O)CC2)nc(-c2ccnc3[nH]ccc23)n1` (stereo unspecified) + COC1C(OC(N)=O)C(O)C(Oc2ccc3c(O)c(NC(=O)c4ccc(O)c(CC=C(C)C)c4)c(=O)oc3c2C)OC1(C)C showed an IC50 (second compound 0.0316 µM) of 4.72 µM, an IC50 (second compound 0.1 µM) of 4.58 µM and an IC50 (second compound 0.316 µM) of 3.33 µM. The IC50 (second compound 1 µM) was 5.31 µM, the IC50 (second compound 3.16 µM) was 5.42 µM and the IC50 (second compound 10 µM) was 5.18 µM. For the same compound, the viability, T/C [1] was 108%, the viability, T/C [2] was 94.3% and the viability, T/C [3] was 99.6%. It also gave a viability, T/C [4] of 97.3%, a viability, T/C [5] of 61.3% and a viability, T/C [6] of 28.7%. For the same compound, the viability, T/C [7] was 118%, the viability, T/C [8] was 99% and the viability, T/C [9] was 103%. For the same compound, the viability, T/C [10] was 95.4%, the viability, T/C [11] was 56.2% and the viability, T/C [12] was 36.1%. The viability, T/C [13] was 103%, the viability, T/C [14] was 99.2% and the viability, T/C [15] was 108%. For the same compound, the viability, T/C [16] was 95.8%, the viability, T/C [17] was 51% and the viability, T/C [18] was 31.9%. It also gave a viability, T/C [19] of 101%, a viability, T/C [20] of 103% and a viability, T/C [21] of 99%. The viability, T/C [22] was 97.3%, the viability, T/C [23] was 63.1% and the viability, T/C [24] was 34%. It also gave a viability, T/C [25] of 102%, a viability, T/C [26] of 109% and a viability, T/C [27] of 104%. The viability, T/C [28] was 91.8%, the viability, T/C [29] was 60.9% and the viability, T/C [30] was 37.8%. The viability, T/C [31] was 104%, the viability, T/C [32] was 103% and the viability, T/C [33] was 114%. It also gave a viability, T/C [34] of 95.7%, a viability, T/C [35] of 62.9% and a viability, T/C [36] of 33.2%.
